In patent US9828339B2, “Biphenyl derivatives and methods for preparing same” (DONG-A ST CO., LTD, priority 2013, dated 2017):

Target: human muscarinic M3 receptor (Homo sapiens (Human), UniProt P20309)
Assay: Binding assay on human muscarinic M3 receptor ([3H]-methyl scopolamine displacement)
Details: membranes overexpressing human M3 receptor, Ki from IC50 by Cheng-Prusoff, read-out: Binding Affinity to M3 Receptor, Ki
Method: [Experimental Example 1] Binding Assay on Human Muscarinic M3 Receptor
Cell membrane proteins (Perkin Elmer) wherein human muscarinic M3 receptor was overexpressed, [^3H]-methyl scopolamine and test compounds in various concentration were cultured in 0.2 ml of Tris-HCl buffer at 25° C. for 120 minutes. The same was filtered under suction through glass fiber filter (Whatman GF/B), and then the filter was washed 5 times with 1 ml of Tris-HCl buffer. The radioactivity of [^3H]-methyl scopolamine adsorbed on the filter was measured by a liquid scintillation counter. Non-specific binding was evaluated under existence of 5 μM of atropine. Affinity of the compound of the present invention to muscarinic M3 receptor was calculated as the dissociation constant (Ki), which can be calculated from concentration (IC50) of test compounds inhibiting 50% of binding of [^3H]-methyl scopolamine (i.e. labeled ligand) according to Cheng and Prusoff [Cheng and Prusoff, Biochem. Pharmacol., 22, 3099, 1973].

human muscarinic M3 receptor, sequence (P20309 whole entry): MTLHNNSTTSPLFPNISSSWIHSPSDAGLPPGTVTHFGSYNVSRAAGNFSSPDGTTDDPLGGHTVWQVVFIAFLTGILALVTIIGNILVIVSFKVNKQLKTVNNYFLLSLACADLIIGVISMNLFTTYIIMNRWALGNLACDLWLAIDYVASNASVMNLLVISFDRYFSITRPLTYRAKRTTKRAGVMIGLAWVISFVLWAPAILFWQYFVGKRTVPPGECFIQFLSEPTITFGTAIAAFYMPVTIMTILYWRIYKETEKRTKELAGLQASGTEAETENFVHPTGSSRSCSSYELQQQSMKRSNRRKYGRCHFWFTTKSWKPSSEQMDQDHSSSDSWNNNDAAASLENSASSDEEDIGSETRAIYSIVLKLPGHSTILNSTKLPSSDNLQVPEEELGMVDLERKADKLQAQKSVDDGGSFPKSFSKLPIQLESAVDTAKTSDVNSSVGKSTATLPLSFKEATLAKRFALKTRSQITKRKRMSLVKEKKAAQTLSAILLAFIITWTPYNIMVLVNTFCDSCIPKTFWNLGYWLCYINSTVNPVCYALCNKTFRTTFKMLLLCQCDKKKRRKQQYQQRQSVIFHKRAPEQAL

Compound | Ki
CN1CCCC1CCOC(=O)Nc1ccccc1-c1ccc(C(C)(C)C)cc1 (stereo not shown) [Example 31, 2-(1-methylpyrrolidin-2-yl)ethyl(4′-(tert-butyl)-[1,1′-biphenyl]-2-yl)carbamate] | 0.311 µM
CN1CCCC1CCOC(=O)Nc1ccccc1-c1ccccc1N (stereo not shown) [Example 32, 2-(1-methylpyrrolidin-2-yl)ethyl(2′-amino-[1,1′-biphenyl]-2-yl)carbamate] | > 1 µM
CN1CCCC1CCOC(=O)Nc1ccccc1-c1ccccc1Cl (stereo not shown) [Example 35, 2-(1-methylpyrrolidin-2-yl)ethyl(2′-chloro-[1,1′-biphenyl]-2-yl)carbamate] | 0.435 µM
CN1CCCC1CCOC(=O)Nc1ccccc1-c1ccccc1O (stereo not shown) [Example 36, 2-(1-methylpyrrolidin-2-yl)ethyl(2′-hydroxy-[1,1′-biphenyl]-2-yl)carbamate] | > 1 µM
Cc1cc(-c2ccccc2NC(=O)OCCC2CCCN2C)cc(C(C)(C)C)c1 (stereo not shown) [Example 37, 2-(1-methylpyrrolidin-2-yl)ethyl(3′-tert-butyl-5′-methyl-[1,1′-biphenyl]-2-yl)carbamate] | > 1 µM
CN1CCCC1CCOC(=O)Nc1ccccc1-c1ccc(F)c(C(F)(F)F)c1 (stereo not shown) [Example 38, 2-(1-methylpyrrolidin-2-yl)ethyl(4′-fluoro-3′-(trifluoromethyl)-[1,1′-biphenyl]-2-yl)carbamate] | 0.574 µM
CN1CCCC1CCOC(=O)Nc1ccc(C(F)(F)F)cc1-c1ccccc1 (stereo not shown) [Example 47, 2-(1-Methylpyrrolidin-2-yl)ethyl(5-(trifluoromethyl)-[1,1′-biphenyl]-2-yl)carbamate] | 0.136 µM
CN1CCCC1CCOC(=O)Nc1ccc(C(F)(F)F)cc1-c1ccc(F)cc1 (stereo not shown) [Example 48, 2-(1-Methylpyrrolidin-2-yl)ethyl(4′-fluoro-5-(trifluoromethyl)-[1,1′-biphenyl]-2-yl)carbamate] | 0.258 µM
CN1CCCC1CCOC(=O)Nc1ccc(C(F)(F)F)cc1-c1cccc(F)c1 (stereo not shown) [Example 49, 2-(1-Methylpyrrolidin-2-yl)ethyl(3′-fluoro-5-(trifluoromethyl)-[1,1′-biphenyl]-2-yl)carbamate] | 0.303 µM
CN1CCCC1CCOC(=O)Nc1ccc(C(F)(F)F)cc1-c1cc(F)cc(F)c1 (stereo not shown) [Example 50, 2-(1-Methylpyrrolidin-2-yl)ethyl (3′,5′-difluoro-5-(trifluoromethyl)-[1,1′-biphenyl]-2-yl)carbamate] | > 1 µM
COc1ccc(NC(=O)OCCC2CCCN2C)c(-c2cccc(F)c2)c1 (stereo not shown) [Example 61, 2-(1-methylpyrrolidin-2-yl)ethyl(3′-fluoro-5-methoxy-[1,1′-biphenyl]-2-yl)carbamate] | 0.218 µM
COc1ccc(NC(=O)OCCC2CCCN2C)c(-c2cc(F)cc(F)c2)c1 (stereo not shown) [Example 62, 2-(1-Methylpyrrolidin-2-yl)ethyl(3′,5′-difluoro-5-methoxy-[1,1′-biphenyl]-2-yl)carbamate] | > 1 µM
COc1ccc(NC(=O)OCCC2CCCN2C)c(-c2cc(Cl)cc(Cl)c2)c1 (stereo not shown) [Example 64, 2-(1-Methylpyrrolidin-2-yl)ethyl(3′,5′-dichloro-5-methoxy-[1,1′-biphenyl]-2-yl)carbamate] | > 1 µM
CN1CCCC1CCOC(=O)Nc1ccc(Cl)cc1-c1cc(Cl)cc(Cl)c1 (stereo not shown) [Example 71, 2-(1-Methylpyrrolidin-2-yl)ethyl (3′,5,5′-trichloro-[1,1′-biphenyl]-2-yl)carbamate] | 0.134 µM
CN1CC[C@@H](COC(=O)Nc2ccccc2-c2ccc(C=O)c(F)c2)C1 [Example 74, (R)-(1-methylpyrrolidin-3-yl)methyl (3′-fluoro-4′-formyl-[1,1′-biphenyl]-2-yl)carbamate] | > 1 µM
CN1CCCC1CCOC(=O)Nc1ccc(O)cc1-c1cc(F)cc(F)c1 (stereo not shown) [Example 75, 2-(1-methylpyrrolidin-2-yl)ethyl (3′,5′-difluoro-5-hydroxy-[1,1′-biphenyl]-2-yl)carbamate] | 0.471 µM
CN1CCCC1CCOC(=O)Nc1ccc(O)cc1-c1cc(Cl)cc(Cl)c1 (stereo not shown) [Example 76, 2-(1-methylpyrrolidin-2-yl)ethyl (3′,5′-dichloro-5-hydroxy-[1,1′-biphenyl]-2-yl)carbamate] | > 1 µM

Molecules with a lower Ki, results first:

Ki | Compound
0.0168 µM | CN1CCCC1CCOC(=O)Nc1ccccc1-c1cccc(N)c1 (stereo not shown) [Example 33, 2-(1-methylpyrrolidin-2-yl)ethyl(3′-amino-[1,1′-biphenyl]-2-yl)carbamate]
0.028 µM | CN1CCCC1CCOC(=O)Nc1ccccc1-c1ccc(N)c(Cl)c1 (stereo not shown) [Example 39, 2-(1-methylpyrrolidin-2-yl)ethyl(4′-amino-3′-chloro-[1,1′-biphenyl]-2-yl)carbamate]
0.119 µM | CN1CCCC1CCOC(=O)Nc1ccccc1-c1cccc(O)c1 (stereo not shown) [Example 40, 2-(1-methylpyrrolidin-2-yl)ethyl(3′-hydroxy-[1,1′-biphenyl]-2-yl)carbamate]
0.0955 µM | CCc1cccc(-c2cc(F)ccc2NC(=O)OCCC2CCCN2C)c1 (stereo not shown) [Example 44, 2-(1-methylpyrrolidin-2-yl)ethyl(3′-ethyl-5-fluoro-[1,1′-biphenyl]-2-yl)carbamate]
0.0696 µM | Cc1cc(C)cc(-c2cc(F)ccc2NC(=O)OCCC2CCCN2C)c1 (stereo not shown) [Example 45, 2-(1-methylpyrrolidin-2-yl)ethyl(5-fluoro-3′,5′-dimethyl-[1,1′-biphenyl]-2-yl)carbamate]
0.0375 µM | CN1CCCC1CCOC(=O)Nc1ccc(F)cc1-c1cccc(N)c1 (stereo not shown) [Example 46, 2-(1-methylpyrrolidin-2-yl)ethyl(3′-amino-5-fluoro-[1,1′-biphenyl]-2-yl)carbamate]
0.101 µM | CN1CCCC1CCOC(=O)Nc1ccc(C(F)(F)F)cc1-c1cccc(Cl)c1 (stereo not shown) [Example 51, 2-(1-Methylpyrrolidin-2-yl)ethyl(3′-chloro-5-(trifluoromethyl)-[1,1′-biphenyl]-2-yl)carbamate]
0.126 µM | CN1CCCC1CCOC(=O)Nc1ccc(F)cc1-c1ccc(Cl)c(F)c1 (stereo not shown) [Example 54, 2-(1-methylpyrrolidin-2-yl)ethyl(4′-chloro-3′,5-difluoro-[1,1′-biphenyl]-2-yl)carbamate]
0.0388 µM | CN1CCCC1CCOC(=O)Nc1ccc(F)cc1-c1cc(Cl)cc(Cl)c1 (stereo not shown) [Example 55, 2-(1-methylpyrrolidin-2-yl)ethyl(3′,5′-dichloro-5-fluoro-[1,1′-biphenyl]-2-yl)carbamate]
0.0348 µM | CN1CCCC1CCOC(=O)Nc1ccc(F)cc1-c1cc(O)cc(Cl)c1 (stereo not shown) [Example 57, 2-(1-methylpyrrolidin-2-yl)ethyl(3′-chloro-5-fluoro-5′-hydroxy-[1,1′-biphenyl]-2-yl)carbamate]
0.119 µM | COc1ccc(NC(=O)OCCC2CCCN2C)c(-c2ccccc2)c1 (stereo not shown) [Example 60, 2-(1-methylpyrrolidin-2-yl)ethyl(5-methoxy-[1,1′-biphenyl]-2-yl)carbamate]
0.0581 µM | COc1ccc(NC(=O)OCCC2CCCN2C)c(-c2cccc(Cl)c2)c1 (stereo not shown) [Example 63, 2-(1-methylpyrrolidin-2-yl)ethyl(3′-chloro-5-methoxy-[1,1′-biphenyl]-2-yl)carbamate]
0.0713 µM | COc1ccc(NC(=O)OCCC2CCCN2C)c(-c2ccc(F)c(Cl)c2)c1 (stereo not shown) [Example 65, 2-(1-Methylpyrrolidin-2-yl)ethyl (3′-chloro-4′-fluoro-5-methoxy-[1,1′-biphenyl]-2-yl)carbamate]
0.109 µM | CN1CCCC1CCOC(=O)Nc1ccc(Cl)cc1-c1cc(F)cc(F)c1 (stereo not shown) [Example 69, 2-(1-Methylpyrrolidin-2-yl)ethyl(5-chloro-3′,5′-difluoro-[1,1′-biphenyl]-2-yl)carbamate]
0.0588 µM | CN1CCCC1CCOC(=O)Nc1ccc(Cl)cc1-c1cc(F)cc(Cl)c1 (stereo not shown) [Example 72, 2-(1-Methylpyrrolidin-2-yl)ethyl (3′,5-dichloro-5′-fluoro-[1,1′-biphenyl]-2-yl)carbamate]
0.0274 µM | O=C(Nc1ccccc1-c1cc(F)cc(F)c1)OC[C@@H]1CCNC1 [Example 80, (R)-pyrrolidin-3-ylmethyl-(3′,5′-difluoro-[1,1′-biphenyl]-2-yl)carbamate]
0.0304 µM | O=C(Nc1ccccc1-c1cc(F)cc(F)c1)OC[C@H]1CCNC1 [Example 81, (S)-pyrrolidin-3-ylmethyl-(3′,5′-difluoro-[1,1′-biphenyl]-2-yl)carbamate]
0.0189 µM | O=C(Nc1ccc(F)cc1-c1ccccc1)OC[C@H]1CCNC1 [Example 82, (S)-pyrrolidin-3-ylmethyl-(5-fluoro-[1,1′-biphenyl]-2-yl)carbamate]
0.0183 µM | Cc1cccc(-c2cc(F)ccc2NC(=O)OC[C@H]2CCNC2)c1 [Example 83, (S)-pyrrolidin-3-ylmethyl (5-fluoro-3′-methyl-[1,1′-biphenyl]-2-yl)carbamate]
0.0349 µM | O=C(Nc1ccc(F)cc1-c1cc(F)cc(F)c1)OC[C@@H]1CCNC1 [Example 84, (R)-pyrrolidin-3-ylmethyl (3′,5,5′-trifluoro-[1,1′-biphenyl]-2-yl)carbamate]
0.111 µM | Cc1ccc(NC(=O)OC[C@@H]2CCNC2)c(-c2ccccc2)c1 [Example 86, (R)-pyrrolidin-3-ylmethyl (5-methyl-[1,1′-biphenyl]-2-yl)carbamate]
0.0944 µM | Cc1ccc(NC(=O)OC[C@@H]2CCNC2)c(-c2cccc(F)c2)c1 [Example 87, (R)-pyrrolidin-3-ylmethyl (3′-fluoro-5-methyl-[1,1′-biphenyl]-2-yl)carbamate]
0.0107 µM | CN1CC[C@H](COC(=O)Nc2ccccc2-c2cc(F)cc(F)c2)C1 [Example 92, (S)-(1-methylpyrrolidin-3-yl)methyl (3′,5′-difluoro-[1,1′-biphenyl]-2-yl)carbamate]
